According to ChEMBL document CHEMBL3414562, “Synthesis of isocryptolepine analogues and their structure-activity relationship studies as antiplasmodial and antiproliferative agents” (Eur J Med Chem, 2015):

Tests used:
[1] = Cytotoxicity against human HuCCa1 cells by MTT assay; assay type: functional, cell-based; details: HuCC-A1
[2] = Selectivity index, ratio of IC50 for human MRC5 cells to IC50 for chloroquine-resistant Plasmodium falciparum K1; assay type: toxicity, cell-based; details: read-out: Ratio IC50
[3] = system: Plasmodium falciparum; assay: microbe, parasite or virus in culture; details: SKF58
[4] = system: Plasmodium falciparum; assay: microbe, parasite or virus in culture; details: K1
Description: Antiplasmodial activity against chloroquine-resistant Plasmodium falciparum K1

[5] = Cytotoxicity against human MOLT3 cells by XTT assay; assay type: functional, cell-based; details: MOLT-3
[6] = Selectivity index, ratio of IC50 for human MRC5 cells to IC50 for […]; assay type: toxicity, cell-based; details: read-out: Ratio IC50
[7] = system: A549; assay: Cytotoxicity against human A549 cells by MTT assay; assay type: functional, cell-based
[8] = Selectivity index, ratio of IC50 for human MRC5 cells to IC50 for chloroquine/mefloquine-resistant Plasmodium falciparum SKF58; assay type: toxicity, cell-based; details: read-out: Ratio IC50
[9] = system: HepG2; assay: Cytotoxicity against human HepG2 cells by MTT assay; assay type: functional, cell-based
[10] = system: Plasmodium falciparum; assay: microbe, parasite or virus in culture; details: SRIV35
[11] = system: MRC5; assay: Cytotoxicity against human MRC5 cells by MTT assay; assay type: cell-based
[12] = Selectivity index, ratio of IC50 for human MRC5 cells to IC50 for chloroquine/mefloquine-resistant Plasmodium falciparum SRIV35; assay type: toxicity, cell-based; details: read-out: Ratio IC50
[13] = system: Plasmodium falciparum; assay: microbe, parasite or virus in culture; details: 3D7
Description: Antiplasmodial activity against chloroquine-sensitive Plasmodium falciparum 3D7

[14] = Selectivity index, ratio of IC50 for human MRC5 cells to IC50 for human HuCCa1 cells; assay type: functional

SMILES | IC50 [1] | selectivity ratio [2] | IC50 [3] | IC50 [4] | IC50 [5] | selectivity ratio [6] | IC50 [7] | selectivity ratio [8] | IC50 [9] | IC50 [10] | IC50 [11] | selectivity ratio [12] | IC50 [13] | Ratio IC50 [14]
Cn1cc2c3cc(Br)ccc3nc-2c2cc(F)ccc21 | 15000 nM | 650 | 132 nM | 188 nM | 880 nM | 1020 | 13200 nM | 921 | 3650 nM | 211 nM | 122000 nM | 577 | 119 nM | 8.14
Cn1cc2c3ccccc3nc-2c2cc(Cl)ccc21 | 6450 nM | 32.5 | 228 nM | 321 nM | 520 nM | 47.1 | 1500 nM | 45.7 | 640 nM | 217 nM | 10400 nM | 48 | 221 nM | 1.62
Cn1cc2c3cc(F)ccc3nc-2c2cc(Cl)ccc21 | 9480 nM | 14.1 | 177 nM | 288 nM | 740 nM | 24.4 | 7900 nM | 22.8 | 810 nM | 176 nM | 4040 nM | 22.9 | 166 nM | 0.43
Cn1cc2c3cc(Cl)ccc3nc-2c2cc(Cl)ccc21 | 13200 nM | 110 | 130 nM | 228 nM | 930 nM | 146 | 30200 nM | 194 | 7900 nM | 156 nM | 25200 nM | 162 | 172 nM | 1.9
Cc1cc(Br)cc2c3cn(C)c4ccc(Cl)cc4c-3nc12 | 6150 nM | 37.8 | 92.6 nM | 145 nM | 1170 nM | 57.7 | 2340 nM | 59.2 | 1390 nM | 86.7 nM | 5430 nM | 63.2 | 95 nM | 0.89
COc1ccc2nc3c4cc(Cl)ccc4n(C)cc-3c2c1 | 10400 nM | 7.52 | 207 nM | 380 nM | 2900 nM | 13.5 | 6980 nM | 13.8 | 2190 nM | 209 nM | 3100 nM | 13.7 | 211 nM | 0.28
Cn1cc2c3ccc4ccccc4c3nc-2c2cc(Cl)ccc21 | 1550 nM | 24.1 | 134 nM | 190 nM | 1550 nM | 33.6 | 1200 nM | 34.3 | 760 nM | 126 nM | 2620 nM | 36.3 | 136 nM | 2.96
Cn1cc2c3ccccc3nc-2c2cccc(Cl)c21 | 21000 nM | – | > 2000 nM | > 2000 nM | 1270 nM | – | 8590 nM | – | 2620 nM | > 2000 nM | 12400 nM | – | > 2000 nM | 0.59
Cn1cc2c3cc(Br)ccc3nc-2c2cccc(Cl)c21 | 4920 nM | – | > 2000 nM | > 2000 nM | 780 nM | – | 5500 nM | – | 2550 nM | > 2000 nM | 3150 nM | – | > 2000 nM | 0.64
Cc1cccc2c3nc4ccccc4c-3cn(C)c12 | 16600 nM | 22.2 | 1570 nM | 1740 nM | 2920 nM | 24.6 | 11100 nM | 24.6 | 2600 nM | 1570 nM | 39500 nM | 24.6 | 1570 nM | 2.33
Cn1cc2c3cc(Br)ccc3nc-2c2cccc(F)c21 | 4480 nM | 51.8 | 243 nM | 296 nM | 1090 nM | 86.1 | 6170 nM | 63 | 3220 nM | 235 nM | 15300 nM | 65.2 | 178 nM | 3.42
Cn1cc2c3cc(Br)ccc3nc-2c2ccc(F)cc21 | 10200 nM | 425 | 92.4 nM | 61.8 nM | 1260 nM | 693 | 7970 nM | 284 | 7410 nM | 83 nM | 26300 nM | 317 | 37.9 nM | 2.58
Cn1cc2c3cc(Br)ccc3nc-2c2cc(F)cc(Cl)c21 | 8000 nM | – | > 2000 nM | > 2000 nM | – | – | 35900 nM | – | 3470 nM | > 2000 nM | 108000 nM | – | > 2000 nM | 13.5
C[C@H]1[C@H](OC(=O)CCC(=O)O)O[C@@H]2O[C@@]3(C)CC[C@H]4[C@H](C)CC[C@@H]1[C@@]24OO3 [ARTESUNATE] | – | – | 10 nM | 3.5 nM | – | – | – | – | – | 4.1 nM | – | – | 4.2 nM | –
COc1cc([C@@H]2c3cc4c(cc3[C@@H](O[C@@H]3O[C@@H]5CO[C@@H](C)O[C@H]5[C@H](O)[C@H]3O)[C@H]3COC(=O)[C@H]23)OCO4)cc(OC)c1O [ETOPOSIDE] | – | – | – | – | 110 nM | – | – | – | 40500 nM | – | – | – | – | –
Cn1cc2c3ccccc3nc-2c2ccccc21 [ISOCRYPTOLEPINE] | 1810 nM | 10.7 | 410 nM | – | 730 nM | 14.3 | 1210 nM | 20.4 | 730 nM | 463 nM | 8350 nM | 18 | 585 nM | 4.62
OC(c1cc(C(F)(F)F)nc2c(C(F)(F)F)cccc12)C1CCCCN1 (stereo not drawn) [MEFLOQUINE] | – | – | – | – | – | – | – | – | – | 65 nM | – | – | – | –
C=C[C@H]1CN2CC[C@H]1C[C@H]2[C@H](O)c1ccnc2ccc(OC)cc12 [QUININE] | – | – | 199 nM | 113 nM | – | – | – | – | – | 431 nM | – | – | 80 nM | –
